Source: patent EP4768499A1, “MACROCYCLIC PEPTIDE COMPOUND HAVING CELL MEMBRANE PERMEABILITY AND METABOLIC STABILITY, AND LIBRARY CONTAINING SAME” (Chugai Seiyaku Kabushiki Kaisha, priority 2023, dated 2025)
Starred links: 1 amine or outer side, 2 acyl side, 3 side chain; linkers in the order of their positions; H or OH if unused. Positions of bridges follow the written chain, without caps; N, C: chain ends. Non-standard residues stand in square brackets, D forms with d. Residues, ends and D or L forms follow the SMILES beside them. *: point of attachment. NMedβ3hAla = C[C@H](CC(=O)[*:2])N(C)[*:1]; NMeF = CN[C@@H](Cc1ccccc1)C(=O)O; NMeGABA = CN(CCCC(=O)[*:2])[*:1]; NMeI = CC[C@H](C)[C@H](NC)C(=O)O; NMeT = CN[C@H](C(=O)O)[C@@H](C)O; hPhe = N[C@@H](CCc1ccccc1)C(=O)O; NMeβAla = CN(CCC(=O)[*:2])[*:1]; NMeL = CN[C@@H](CC(C)C)C(=O)O; NMeV = CN[C@H](C(=O)O)C(C)C; d(β3hA) = C[C@@H](N)CC(=O)O; NMeAbu = CC[C@H](NC)C(=O)O; NMeA = CN[C@@H](C)C(=O)O; Piperidide = C1CCN(*)CC1; dNMeA = CN[C@H](C)C(=O)O; Abu = CC[C@H](N)C(=O)O; NBuGly = CCCCNCC(=O)O; Sar = CNCC(=O)O; tBu = CC(C)(C)*

Tests used:
[1] = Metabolic stability test: liver microsomal stability assay; format: in vitro ADME, mouse; conditions: mouse liver microsomes 0.5 mg protein/mL, compound 1 µM; for microsomal CLint at 1 µM: male, pH 7.4, presence of NADPH, read-out: Mouse Hepatic Microsome CLh,int NADPH(+); for Mouse Hepatic Microsome CLh,int NADPH(-): absence of NADPH
[2] = Membrane permeability test using Caco-2 cells with preincubation; format: in vitro ADME; conditions: Caco-2; preincubation 20 to 24 hours; Apical FaSSIF/HBSS pH 6.0, Basal HBSS 4% BSA pH 7.4; 180 minutes; read-out: Caco2 Papp
Caco-2 cells = test: as above; format: in vitro ADME; conditions: Caco-2 cells, preincubation 20 to 24 hours; apical FaSSIF/HBSS 1% DMSO pH 6.0, basal HBSS 4% BSA pH 7.4; basal sample at 180 minutes

Structure (SMILES)	microsomal CLint at 1 µM [1]	Mouse Hepatic Microsome CLh,int NADPH(-) [1]	Papp A→B [2]	Caco2 Papp (10^-6 cm/sec) (Caco-2 cells)
CC[C@H](C)[C@H]1C(=O)N(C)[C@@H]([C@@H](C)O)C(=O)N(C)[C@@H](CC)C(=O)N(C)[C@@H](CC(C)C)C(=O)N2CCC[C@H]2C(=O)N[C@H](C(=O)N2CCCCC2)CC(=O)N(C)[C@@H](C)C(=O)N[C@@H](CC(C)C)C(=O)N(C)[C@@H](CC(C)C)C(=O)N(C)[C@@H](C)C(=O)N2CCC[C@H]2C(=O)N[C@@H](CCc2ccccc2)C(=O)N(C)[C@@H](CC(C)C)C(=O)N1C [pd125] ([NMeA]L[NMeL][NMeA]P[hPhe][NMeL][NMeI][NMeT][NMeAbu][NMeL]PD-Piperidide; lactam N-13)	16.7 µL/min/mg	18.1 µL/min/mg Protein	0.13 ×10⁻⁶ cm/s	0.13 10^-6 cm/sec
CC[C@H](C)[C@@H]1NC(=O)[C@H](CC(C)C)N(C)C(=O)CN(C)C(=O)C[C@@H](C(=O)N2CCCCC2)NC(=O)[C@H](C)N(C)C(=O)CNC(=O)[C@H](C(C)C)N(C)C(=O)[C@H](C)N(C)C(=O)[C@H](Cc2ccccc2)N(C)C(=O)[C@H](C(C)C)NC(=O)[C@H](CC(C)C)NC(=O)[C@H](Cc2ccccc2)N(C)C(=O)[C@H]([C@@H](C)O)NC(=O)[C@H](CC(C)C)N(C)C1=O [pd039] ([Sar][NMeL]I[NMeL]T[NMeF]LV[NMeF][NMeA][NMeV]G[NMeA]D-Piperidide; lactam N-14)	21.4 µL/min/mg	15.6 µL/min/mg Protein	0.03 ×10⁻⁶ cm/s	0.03 10^-6 cm/sec
CCCCN1CC(=O)N[C@@H](C)C(=O)N(C)[C@@H](Cc2ccccc2)C(=O)N[C@@H](CC(C)C)C(=O)N[C@@H](C)C(=O)N(C)[C@@H](C(C)C)C(=O)N[C@H](C(=O)N2CCCCC2)CC(=O)N[C@H](C(C)C)C(=O)N(C)[C@@H](Cc2ccccc2)C(=O)N[C@@H](CC)C(=O)N(C)[C@@H](C(C)C)C(=O)N(C)CCC(=O)N[C@@H]([C@@H](C)O)C(=O)N(C)[C@@H](CC(C)C)C1=O [pd019] ([dV][NMeF][Abu][NMeV][NMeβAla]T[NMeL][NBuGly]A[NMeF]LA[NMeV]D-Piperidide; lactam N-14)	34.7 µL/min/mg	24.9 µL/min/mg Protein	< 0.11 ×10⁻⁶ cm/s	<0.11 10^-6 cm/sec
CC[C@@H]1NC(=O)[C@H](Cc2ccccc2)N(C)C(=O)[C@@H]2CCCN2C(=O)[C@H](CC(C)C)N(C)C(=O)[C@H](CC)NC(=O)[C@H](C(C)C)NC(=O)[C@H](CC(C)C)N(C)C(=O)[C@H]([C@@H](C)O)NC(=O)[C@H](Cc2ccccc2)N(C)C(=O)CN(C)C(=O)C[C@@H](C)N(C)C(=O)[C@H](C(C)C)NC(=O)[C@H](CC)N(C)C(=O)[C@H](C)N(C)C1=O [pd070] (cyclo([Abu][NMeA][NMeAbu]V[NMedβ3hAla][Sar][NMeF]T[NMeL]V[Abu][NMeL]P[NMeF]))	15 µL/min/mg	14.6 µL/min/mg Protein	0.03 ×10⁻⁶ cm/s	0.03 10^-6 cm/sec
CC[C@H](C)[C@H]1C(=O)N[C@@H]([C@@H](C)O)C(=O)N(C)CC(=O)N(C)[C@@H](CC(C)C)C(=O)N[C@@H](CC(C)C)C(=O)N[C@H](C)CC(=O)N(C)[C@@H](C)C(=O)N[C@@H](CC(C)C)C(=O)N(C)[C@@H](C)C(=O)N(C)[C@@H](CC(C)C)C(=O)N[C@@H](COC(C)(C)C)C(=O)N(C)[C@@H](Cc2ccccc2)C(=O)N[C@@H](C(C)C)C(=O)N(C)[C@@H](CC(C)C)C(=O)N1C [pd052] (cyclo(L[NMeA][NMeL]S(tBu)[NMeF]V[NMeL][NMeI]T[Sar][NMeL]L[d(β3hA)][NMeA]))	28 µL/min/mg	32.0 µL/min/mg Protein	1.01 ×10⁻⁶ cm/s	1.01 10^-6 cm/sec
CC[C@H](C)[C@@H]1NC(=O)[C@H](C)N(C)C(=O)[C@H]([C@@H](C)O)NC(=O)[C@H](CC(C)C)N(C)C(=O)[C@H](CC)N(C)C(=O)[C@H](Cc2ccccc2)N(C)C(=O)[C@H](C)NC(=O)[C@H](Cc2ccccc2)N(C)C(=O)[C@H](C)N(C)C(=O)[C@H](CC(C)C)N(C)C(=O)[C@H](CC(C)C)NC(=O)CCCN(C)C(=O)C[C@@H](C(=O)N2CCCCC2)NC(=O)[C@H](CC(C)C)N(C)C1=O [pd041] ([NMeGABA]L[NMeL][NMeA][NMeF]A[NMeF][NMeAbu][NMeL]T[NMeA]I[NMeL]D-Piperidide; lactam N-14)	25.1 µL/min/mg	23.5 µL/min/mg Protein	0.13 ×10⁻⁶ cm/s	0.13 10^-6 cm/sec
CC[C@H](C)[C@H]1C(=O)N[C@@H](Cc2ccccc2)C(=O)N2CCC[C@H]2C(=O)N(C)[C@@H](CC(C)C)C(=O)N[C@@H](COC(C)(C)C)C(=O)N(C)[C@@H](Cc2ccccc2)C(=O)N[C@@H]([C@@H](C)O)C(=O)N(C)[C@@H](CC)C(=O)N2CCC[C@H]2C(=O)N(C)[C@@H](CC(C)C)C(=O)N[C@@H](C(C)C)C(=O)N[C@H](C(=O)N2CCCCC2)CC(=O)N(C)CCCC(=O)N(C)[C@@H](CC(C)C)C(=O)N1C [pd042] ([NMeGABA][NMeL][NMeI]FP[NMeL]S(tBu)[NMeF]T[NMeAbu]P[NMeL]VD-Piperidide; lactam N-14)	32.3 µL/min/mg	18.1 µL/min/mg Protein	0.59 ×10⁻⁶ cm/s	0.59 10^-6 cm/sec
CC[C@H]1C(=O)N(C)[C@@H](C)C(=O)N[C@@H](CC(C)C)C(=O)N(C)[C@@H](C(C)C)C(=O)N[C@H](C)CC(=O)N[C@H](C(C)C)C(=O)N(C)[C@@H](CC(C)C)C(=O)N[C@@H](CC(C)C)C(=O)N(C)[C@@H](C(C)C)C(=O)N(C)[C@@H](CC(C)C)C(=O)N(C)CC(=O)N[C@@H]([C@@H](C)O)C(=O)N(C)[C@@H](Cc2ccccc2)C(=O)N[C@@H](COC(C)(C)C)C(=O)N1C [pd049] (cyclo(L[NMeV][NMeL][Sar]T[NMeF]S(tBu)[NMeAbu][NMeA]L[NMeV][d(β3hA)][dV][NMeL]))	30.6 µL/min/mg	29.1 µL/min/mg Protein	0.32 ×10⁻⁶ cm/s	0.32 10^-6 cm/sec
CC[C@H](C)[C@@H]1NC(=O)[C@@H]2CCCN2C(=O)[C@H](C(C)C)N(C)C(=O)[C@@H](C)N(C)C(=O)C[C@@H](C)NC(=O)[C@H](C(C)C)N(C)C(=O)[C@H](Cc2ccccc2)N(C)C(=O)[C@H](COC(C)(C)C)NC(=O)[C@H](CC(C)C)N(C)C(=O)[C@H](C)N(C)C(=O)[C@H](CC(C)C)N(C)C(=O)[C@H]([C@@H](C)O)NC(=O)[C@H](Cc2ccccc2)N(C)C1=O [pd136] (cyclo(I[NMeF]T[NMeL][NMeA][NMeL]S(tBu)[NMeF][NMeV][d(β3hA)][dNMeA][NMeV]P))	27.2 µL/min/mg	28.8 µL/min/mg Protein	0.53 ×10⁻⁶ cm/s	0.53 10^-6 cm/sec
CCCCN1CC(=O)N[C@@H]([C@@H](C)CC)C(=O)N(C)[C@@H](CC(C)C)C(=O)N[C@@H](C(C)C)C(=O)N[C@H](C(=O)N2CCCCC2)CC(=O)N(C)[C@@H](C)C(=O)N(C)[C@@H](CC(C)C)C(=O)N[C@@H]([C@@H](C)O)C(=O)N(C)[C@@H](Cc2ccccc2)C(=O)N[C@@H](CC)C(=O)N(C)[C@@H](Cc2ccccc2)C(=O)N[C@@H](C)C(=O)N(C)CCC(=O)N[C@@H](CC(C)C)C1=O [pd026] ([NMeA][NMeL]T[NMeF][Abu][NMeF]A[NMeβAla]L[NBuGly]I[NMeL]VD-Piperidide; lactam N-14)	63.5 µL/min/mg	29.9 µL/min/mg Protein	0.58 ×10⁻⁶ cm/s	0.58 10^-6 cm/sec
CC[C@H]1C(=O)N(C)[C@H](C)CC(=O)N(C)[C@H](C)C(=O)N(C)[C@@H](C)C(=O)N(C)[C@@H](Cc2ccccc2)C(=O)N[C@@H](C(C)C)C(=O)N(C)[C@@H](CC(C)C)C(=O)N(C)[C@@H]([C@@H](C)O)C(=O)N(C)CC(=O)N[C@@H](C)C(=O)N(C)[C@@H](CC(C)C)C(=O)N[C@@H](COC(C)(C)C)C(=O)N(C)[C@@H](Cc2ccccc2)C(=O)N1C [pd150] (cyclo(A[NMeL]S(tBu)[NMeF][NMeAbu][NMedβ3hAla][dNMeA][NMeA][NMeF]V[NMeL][NMeT][Sar]))	15.2 µL/min/mg	4.2 µL/min/mg Protein	0.29 ×10⁻⁶ cm/s	0.29 10^-6 cm/sec
CC(C)C[C@@H]1NC(=O)[C@H](CC(C)C)N(C)C(=O)[C@H](C(C)C)N(C)C(=O)[C@H](CCc2ccccc2)NC(=O)[C@H]([C@@H](C)O)N(C)C(=O)[C@@H](C(C)C)NC(=O)C[C@@H](C(=O)N2CCCCC2)NC(=O)[C@H](C(C)C)N(C)C(=O)[C@H](CC(C)C)NC(=O)[C@H](Cc2ccccc2)N(C)C(=O)[C@@H]2CCCN2C(=O)[C@H](C(C)C)NC(=O)[C@H](CC(C)C)N(C)C(=O)CN(C)C1=O [pd032] ([dV][NMeT][hPhe][NMeV][NMeL]L[Sar][NMeL]VP[NMeF]L[NMeV]D-Piperidide; lactam N-14)	28.9 µL/min/mg	28.7 µL/min/mg Protein	0.72 ×10⁻⁶ cm/s	0.72 10^-6 cm/sec
CC(C)C[C@@H]1NC(=O)[C@@H]2CCCN2C(=O)[C@H](C(C)C)N(C)C(=O)[C@H](C)NC(=O)[C@H](CC(C)C)N(C)C(=O)[C@@H](C(C)C)NC(=O)C[C@@H](C(=O)N2CCCCC2)NC(=O)[C@H](C(C)C)N(C)C(=O)[C@H](Cc2ccccc2)N(C)C(=O)[C@H](CC(C)C)NC(=O)[C@H](COC(C)(C)C)NC(=O)[C@H](CC(C)C)N(C)C(=O)CN(C)C1=O [pd097] ([dV][NMeL]A[NMeV]PL[Sar][NMeL]S(tBu)L[NMeF][NMeV]D-Piperidide; lactam N-13)	20.4 µL/min/mg	18.8 µL/min/mg Protein	0.54 ×10⁻⁶ cm/s	0.54 10^-6 cm/sec
